From US11554127B2, “Synergistic antitumor effect of Bcl-2 inhibitor combined with rituximab and/or bendamustine or Bcl-2 inhibitor combined with CHOP” (ASCENTAGE PHARMA (SUZHOU) CO., LTD., priority 2018, dated 2023) come the findings set out here.

One test relates to Toledo. Kind of test: in vitro cell experiments, sensitivity of Toledo cell line. Format: cell-based. The conditions noted are these: Toledo human DLBCL cell line.
Another test concerns OCI-LY8 cells. Kind of test: in vitro experiment, sensitivity of OCI-LY8 cells. In kind it is cell-based. As to conditions: OCI-LY8 human DLBCL cell line. On the procedure: (1) The experimental method was as described in Example 1. In the in vitro experiment, OCI-LY8 cells were also human DLBCL cell lines sensitive to Compound 6 treatment, with an IC50 value of 0.006±0.002 μM. Therefore, this experiment used OCI-LY8 cells to establish a mouse xenograft tumor model (A. Esteve-Arenys et al. The BET bromodomain inhibitor CP1203 overcomes resistance to ABT-199 (venetoclax) by downregulation of BFL-1/A1 in in vitro and in vivo models of MYC+/BCL2+ double hit lymphoma. Oncogene 37(14). January 2018), and thereby evaluated the anti-tumor effect of Compound 6 in combination with rituximab.

The test system of a further test is DOHH2. Nature of the test: in vitro cell experiments, sensitivity of DOHH2 cell line. Format: cell-based. As to conditions: DOHH2 human follicular lymphoma cell line.
Test [1] concerns human Toledo (DLBCL) mouse xenograft tumor. In kind it is in vivo. The conditions noted are these: Compound 6 100 mg/kg p.o. qd×14 days; rituximab 4 mg/kg i.v. qw; day 15. As for the experimental part:
(§1) All animal experiments were strictly in accordance with the laboratory animal use and management practices of GenePharma Co., Ltd. and Ascentage Pharma Group Co., Ltd. The calculation of relevant parameters referred to the Chinese CFDA “Guidelines for Non-Clinical Research Techniques of Cytotoxic Antitumor Drugs”.
(§2) The animal body weight and tumor size were measured twice weekly during the experiment. The conditions and death of the animals were observed every day. Routine monitoring included the effects of tumor growth and treatment on normal animal behaviors, including activity, feeding and drinking situations, weight gain or loss, eyes, coat and other abnormalities in the experimental animals. The deaths and clinical symptoms observed during the experiment were recorded in the raw data. The entire operations of administration, measurement of mouse body weight and tumor volume were performed in a clean bench. Plasma and tumor tissues were collected, weighed and photographed after the end of the last administration according to the experimental protocol. Plasma and tumor samples were snap frozen and stored at −80° C.
(§3) Tumor volume (TV) was calculated as: TV=a×b2/2, in which a and b represented the length and width of the tumor as measured, respectively. The relative tumor volume (RTV) was calculated as: RTV=Vt/V1, in which V1 was the tumor volume at the time of grouping and administration, and Vt was the tumor volume measured on a day after administration. […] Change of body weight %=(measured body weight−body weight at the time of grouping)/body weight at the time of grouping×100%.
(§4) If the synergy factor was >1, there was a synergistic effect; if the synergistic factor=1, there was an additive effect; if the synergistic factor <1, there was an antagonistic effect.

Test [2] relates to human OCI-LY8 (DLBCL) mouse xenograft tumor. In kind it is in vivo. As for the experimental part: as §1, §2, §3, §4
Bendamustine was an FDA approved drug for the treatment of B-cell non-Hodgkin's lymphoma.

Test [3] concerns human DOHH2 (FL) mouse xenograft tumor. In kind it is in vivo. The conditions noted are these: day 15; for Tumor remission on the 15th day after administration: CR: animals with CR/group; for Tumor remission on the 15th day after administration: PR: animals with PR/group. On the procedure:
as §1, §2, §3, §4
CHOP included: cyclophosphamide, 20 mg/kg, intraperitoneal injection, administered on the 1st and 9th days; doxorubicin, 2 mg/kg, intravenous injection, administered on the 1st day; vincristine, 0.1 mg/kg, intravenous injection, administered on the 1st and 9th days; prednisone, 0.5 mg/kg, orally administered on the 1st day. […] The injected dose was 10 mL/kg (0.2 mL/mouse). The agent was dissolved in saline. […] The agent was dissolved in saline. Vincristine (batch number 0708v1) was purchased from Shenzhen Main Luck Pharmaceuticals Inc. Vincristine was administered by intravenous injection at a dose of 10 mL/kg (0.2 mL/mouse). The agent was dissolved in saline. Prednisone (batch number M0412A) was purchased from Dalian Meilun Biotechnology Co., Ltd. Prednisone was administered by oral gavage at a dose of 10 mL/kg (0.2 mL/mouse). […] The dosage formulations were prepared freshly prior to use. The preparation and use of the dosage formulations were always carried out under sterile conditions.

Where [4] appears, read: Cpd. 6 25 mg/kg p.o. qd×15d, day 11.
Where [5] appears, read: Cpd. 6 50 mg/kg p.o. qd×15d, alone or + rituximab 4 mg/kg i.v. qw×2 wks, day 11.
[6] abbreviates: Cpd. 6 100 mg/kg p.o. qd×15d, alone or + rituximab 4 mg/kg i.v. qw×2 wks, day 11.
Setting [7] is: Table 3: Cpd. 6 100 mg/kg p.o. qd, bendamustine 25 mg/kg i.v., rituximab 10 mg/kg i.v., day 11.
Where [8] appears, read: Table 4: Cpd. 6 100 mg/kg p.o. qd, bendamustine 25 mg/kg, rituximab 10 mg/kg.
Setting [9] is: Table 4: Cpd. 6 100 mg/kg, bendamustine 25 mg/kg, rituximab 10 mg/kg.
[10] abbreviates: Table 5: Cpd. 6 100 mg/kg, CHOP regimen.
Where [11] appears, read: rituximab alone 4 mg/kg i.v. qw×2 wks, day 11.

Where two headings read alike, the source gives them in different places.

As for `O=C(NS(=O)(=O)c1ccc(NC[C@H]2COCCO2)c([N+](=O)[O-])c1)c1ccc(N2CCN(CC3=C(c4ccc(Cl)cc4)CC4(CCC4)CC3)CC2)cc1Oc1cnc2[nH]ccc2c1` [Compound 6, (S)-N-((4-(((1,4-dioxan-2-yl)methyl)amino)-3-nitrophenyl)sulfonyl)-2-((1H-pyrrolo[2,3-b]pyridin-5-yl)oxy)-4-(4-((6-(4-chlorophenyl)spiro[3.5]non-6-en-7-yl)methyl)piperazin-1-yl)benzamide], the IC50 with Toledo amounted to 49 ± 5 nM; in the test on OCI-LY8 cells, 6 ± 2 nM. In the test on DOHH2, the “sensitivity of cell line to Compound 6 treatment” value is “relatively sensitive”. For the same molecule, the “RTV on the 15th day after administration (mean ± standard error)” value in test [1] was 4.93 ± 0.41 ^; in test [3] (setting [8]), 3.06 ± 0.79; in test [3] (Table 5: Cpd. 6 100 mg/kg, CHOP (cyclophosphamide 20 mg/kg i.p. d1, d9; doxorubicin 2 mg/kg i.v. d1; vincristine 0.1 mg/kg i.v. d1, d9; prednisone 0.5 mg/kg p.o. d1)) it was 3.06 ± 0.79. Moreover, the “T/C (%) on the 15th day after administration” value in test [1] amounted to 38%; in test [3] (setting [8]), 28%; in test [3] (setting [10]), 28%. In addition, the “RTV on the 11th day after administration (mean ± standard error)” value is 6.87 ± 2.1 **^ in test [2] (setting [4]), 6.19 ± 1.86 in test [2] (setting [5]), 5.54 ± 1.78 in test [2] (setting [6]) and 5.54 ± 1.78 in test [2] (setting [7]). Further, the “T/C (%) on the 11th day after administration” value was 37% in test [2] (setting [4]), 33% in test [2] (setting [5]), 30% in test [2] (setting [6]) and 30% in test [2] (setting [7]). In addition, the “Tumor status on the 11th day after administration (remission rate %)” value is reported as 0% in test [2] (setting [4]); 0% in test [2] (Cpd. 6 50 mg/kg, alone or + rituximab 4 mg/kg, day 11); 0% in test [2] (Cpd. 6 100 mg/kg, alone or + rituximab 4 mg/kg, day 11). In addition, the “Tumor status on the 11th day after administration: CR” value is 0/5 CR, in test [2] (Cpd. 6 25 mg/kg p.o. qd×15d, day 11, animals with CR/group); 0/5 CR, in test [2] (Cpd. 6 50 mg/kg, alone or + rituximab 4 mg/kg, day 11, animals with CR/group); 0/5 CR, in test [2] (Cpd. 6 100 mg/kg, alone or + rituximab 4 mg/kg, day 11, animals with CR/group). Besides, the “Tumor status on the 11th day after administration: PR” value (from here on “Tumor status on the 11th day … PR”) in test [2] (Cpd. 6 25 mg/kg p.o. qd×15d, day 11, animals with PR/group) is given as 0/5; in test [2] (Cpd. 6 50 mg/kg, alone or + rituximab 4 mg/kg, day 11, animals with PR/group) it was 0/5; in test [2] (Cpd. 6 100 mg/kg, alone or + rituximab 4 mg/kg, day 11, animals with PR/group), 0/5. Also, the “On the 11th day after administration (remission rate %)” value in test [2] (Table 3: Cpd. 6 100 mg/kg, bendamustine 25 mg/kg, rituximab 10 mg/kg, day 11) was determined as 0%. For the same molecule, the “On the 11th day after administration: CR” value in test [2] (Table 3: Cpd. 6 100 mg/kg, bendamustine 25 mg/kg, rituximab 10 mg/kg, day 11, animals with CR/group) is recorded as 0/5 CR,. Also, in test [2] (Table 3: Cpd. 6 100 mg/kg, bendamustine 25 mg/kg, rituximab 10 mg/kg, day 11, animals with PR/group), the “On the 11th day after administration: PR” value is 0/5. The “Tumor remission rate on the 15th day after administration %” value in test [3] (setting [9]) and in test [3] (setting [10]) was 0% in each case. In addition, the “Tumor remission on the 15th day after administration: CR” value in test [3] (setting [9]) and in test [3] (setting [10]) was 0/5 each time. For the same molecule, the “Tumor remission on the 15th day after administration: PR” value in test [3] (setting [9]) and in test [3] (setting [10]) was 0/5 each time.

On to Rituximab [reference compound], for which, in test [1], the “RTV on the 15th day after administration (mean ± standard error)” value is given as 8.99 ± 2.15 ^ and the “T/C (%) on the 15th day after administration” value worked out at 69%. For the same molecule, in test [2] (setting [11]), the “RTV on the 11th day after administration (mean ± standard error)” value is 1.38 ± 0.69 and the “T/C (%) on the 11th day after administration” value is recorded as 7%. Besides, the “Tumor status on the 11th day after administration (remission rate %)” value in test [2] (rituximab alone 4 mg/kg, day 11) stood at 80%. For the same molecule, the “Tumor status on the 11th day after administration: CR” value in test [2] (rituximab alone 4 mg/kg, day 11, animals with CR/group) was 0/5 CR,. In test [2] (rituximab alone 4 mg/kg, day 11, animals with PR/group), the “Tumor status on the 11th day … PR” value is 4/5. For the same molecule, in test [2] (rituximab alone 4 mg/kg, day 11, animals with PR/group, listed as rituximab), the “Tumor status on the 11th day … PR” value was “Four out of five”. In test [2] (rituximab alone 4 mg/kg, day 22, after drug discontinuance), the “RTV on the 22nd day after administration (mean ± standard error)” value is 20.04 ± 5.38 ^.

What is called IC50 is the concentration that inhibits the measured activity by half.
